Experiment [1] deals with HEK-293 (human embryonic kidney cells). The experiment is described as follows: Inhibition of cell proliferation (MTT), nontumor HEK-293. The class given is cell-based. The conditions noted are these: Table 2, 48 h of treatment (footnote), average ±SD of three experiments.
The next experiment concerns VEGF gene. Put plainly: VEGF gene expression by RT-qPCR in HT-29 cells. The class given is cell-based, human. The conditions noted are these: HT-29, 48 h; for mrna remaining at 0.004 µM: 4 nM. An outline of the steps: (§1)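 HT-29 cells seeded at 1.5 × 10^5 per well, after 24 h exposed to compounds for 48 h at fixed single concentrations (15 μM for CA-4, otherwise nM to μM per derivative). Total RNA reverse-transcribed with oligo(dT)15; genes quantified by TaqMan RT-qPCR, β-actin as reference.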

The subject of another experiment is hTERT gene. Put plainly: hTERT gene expression by RT-qPCR in HT-29 cells. It is filed as cell-based, human. The conditions noted are these: Homo sapiens, HT-29, 48 h, control 100; for mrna remaining at 0.004 µM: 4 nM. A digest of the protocol: as §1
Another experiment relates to A-549 cells. The experiment is described as follows: Cell cycle distribution by flow cytometry. The class given is cell-based, human. The conditions noted are these: A-549, 24 h. An outline of the steps:
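A-549 cells were harvested, fixed in cold 70% ethanol (30 min, −20 °C), then stained with 50 µg/mL propidium iodide plus 100 µg/mL RNase A in PBS for 20 min at room temperature in the dark. Flow cytometry used 488 nm excitation and 620 nm emission, giving the percentage of cells in G2/M.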

For experiment [2], the system named is HT-29 (human colon adenocarcinoma). Put plainly: Inhibition of cell proliferation (MTT), HT-29. The class given is cell-based. The conditions noted are these: Table 2, 48 h of treatment (footnote), average ±SD of three experiments.

As to `COc1ccc(/C=C\c2cc(OC)c(OC)c(OC)c2)cc1NC(=O)[C@@H](N)C(C)C` [Compound 8.3], the IC50 in experiment [1] (Homo sapiens, HEK293, 48 h) is 7.6 ± 0.3 nM. In the experiment on VEGF gene (Homo sapiens, 10 nM, control 100), this compound came in with a mrna remaining at 0.01 µM of 33%. The mrna remaining at 0.01 µM in the experiment on hTERT gene (10 nM) was under 70%. In the experiment with A-549 cells (2 µM), this compound showed a G0/G1 of 65 ± 2%, a G2/M of 15 ± 2% and an S of 20 ± 1%. In the experiment with A-549 cells (concentration per compound as in Tables 6 and 7), the “Effect on the cell cycle” value is on record as “do not accumulate a high percentage of cells in phase G2/M”. Besides, in experiment [2] (Homo sapiens, HT-29, 48 h), inhibition was half-maximal at 13.3 ± 0.5 nM (IC50).

`COc1ccc(/C=C\c2cc(OC)c(OC)c(OC)c2)cc1NC(=O)[C@@H](N)Cc1ccccc1` [Compound 8.5]: the IC50 in experiment [1] (Homo sapiens, HEK293, 48 h) was under 5 nM; in experiment [1], 3.5 ± 1.9 nM; in experiment [2] (Homo sapiens, HT-29, 48 h), under 5 nM; in experiment [2], 4.4 ± 2.5 nM. The mrna remaining at 0.004 µM with VEGF gene (Homo sapiens, control 100) stood at 37%; in the experiment with hTERT gene, 98%. Further, the G0/G1 in the experiment on A-549 cells (0.5 µM) turned out to be 46 ± 2%. In the experiment with A-549 cells (0.5 µM), this compound yielded a G2/M of 26 ± 10%. In addition, in the experiment on A-549 cells (0.5 µM), the S stood at 28 ± 11%.

On to `COc1ccc(/C=C\c2cc(OC)c(OC)c(OC)c2)cc1NC(=O)[C@@H](N)C(C)O` (some centres unmarked) [Compound 8.7], for which the IC50 in experiment [1] (Homo sapiens, HEK293, 48 h) was 14 ± 3 nM; in experiment [2] (Homo sapiens, HT-29, 48 h) it was 8 ± 2 nM. Further, the “downregulation of VEGF gene expression” value with VEGF gene (discussion, concentration per compound) is listed as “more than 60%”. The mrna remaining at 0.007 µM with VEGF gene (Homo sapiens, 7 nM, control 100) stood at 15%; in the experiment with hTERT gene (7 nM) it was 81%. This compound displayed a G0/G1 in the experiment with A-549 cells (2 µM) of 31 ± 1%. The G2/M in the experiment with A-549 cells (2 µM) worked out at 51 ± 2%. The same compound showed a S with A-549 cells (2 µM) of 18 ± 1%. Also, in the experiment on A-549 cells (concentration per compound as in Tables 6 and 7, control 14%), the “cells accumulated in the G2/M phase” value is reported as “more than 50%”.

`COc1ccc(/C=C\c2cc(OC)c(OC)c(OC)c2)cc1NC(=O)[C@@H](N)CCSC` [Compound 8.9]: the IC50 in experiment [1] (Homo sapiens, HEK293, 48 h) was under 5 nM; in experiment [1], 3.7 ± 0.3 nM; in experiment [2] (Homo sapiens, HT-29, 48 h), under 5 nM; in experiment [2], 4.9 ± 0.1 nM. In addition, the mrna remaining at 0.004 µM was determined as 48% in the experiment on VEGF gene (Homo sapiens, control 100) and 71% with hTERT gene. The G0/G1 in the experiment on A-549 cells (0.2 µM) came to 30 ± 1%. In addition, the G2/M in the experiment with A-549 cells (0.2 µM) amounted to 51 ± 2%. Also, in the experiment on A-549 cells (0.2 µM), the S is 19 ± 1%.
